Test results as given in US20250313635A1, “ANTI-INTEGRIN ANTIBODIES AND USES THEREOF” (Merck Sharp & Dohme LLC, priority 2022, published 2025).
Where two headings read alike, the source gives them in different places.

Legend:
[1] = biological target: T1, mαvβ6 (Mus musculus, UniProt P43406+Q9Z0T9); assay: Mouse AlphaLISA integrin-ligand blocking assay (LAP); assay type: biochemical; conditions: Table 12; read-out: IC50 Mouse integrin AlphaLISA assays mαvβ6
T1 construct: The full extracellular domains for all α and β integrin subunits; (GGGS)3 linker (C); acidic coiled-coil with cysteine (C); GG-Avitag (C); hexa-histidine tag (C); basic coiled-coil with cysteine (C); made in house; host or cells: Expi293 cells
Procedure: (§1) Integrin AlphaLISA assay. In the AlphaLISA integrin assays, we used a HEPES based buffer (25 mM HEPES pH 7.4, 137 mM NaCl, 1 mM MgCl2, 1 mM MnCl2, 2 mM CaCl2, 2.7 mM KCl, and 0.05% Tween 20). Optimal assay conditions were determined with a titration of the reagents for signal noise ratio (S/N), linear range, etc. For the respective integrins, we used the final concentrations described in Table 9.
(§2) Briefly, the testing antibody (8 μL) was added as a 4×(of Final testing concentration) solution in the HEPES buffer described previously into a 384w AlphaPlate™ (Perkin Elmer #6005350). Then the integrin and ligand were added sequentially as 8×(4 μL each). Plates were sealed and incubated at room temperature for two hours. Then 4×acceptor bead solution ([…]) was added, and the plates were resealed and incubated at room temperature (RT) for one hour. Finally, 4×([…]) donor beads solution was added in a darkened room and incubated for 45 minutes at room temperature. Plates were read on the Envision (Perkin Elmer) in AlphaScreen™ mode within three hours of donor bead addition.

[2] = biological target: T2, mαvβ8 (Mus musculus, UniProt P43406+Q0VBD0); assay: as above; assay type: biochemical; conditions: Table 12; read-out: IC50 Mouse integrin AlphaLISA assays mαvβ8
T2 construct: The full extracellular domains for all α and β integrin subunits; (GGGS)3 linker (C); acidic coiled-coil with cysteine (C); GG-Avitag (C); hexa-histidine tag (C); basic coiled-coil with cysteine (C); made in house; host or cells: Expi293 cells
Procedure: as §1, §2

[3] = biological target: T3, mouse αvβ3 (Mus musculus, UniProt O54890+P43406); assay: Cell adhesion assay, CHOK1-mαvβ3 cells on vitronectin; assay type: cell-based; conditions: FIG. 11
T3 construct: expressed in transfected cells
Procedure: (§3) Cell adhesion assay. For plate preparation, Epic 384-well assay plates (Corning #5040) were washed with OptiMEM™ (Gibco #31985-070) and coated with murine fibronectin (Abcam #ab92784) at a concentration of 0.1 μg/well for CHO-α5KO-mαvβ1 cells; murine vitronectin (Abcam #ab92727) at 0.075 μg/well for CHO-mαvβ3 cells; or murine vitronectin at 0.125 μg/well for CHO-mαvβ5 (all at a volume of 25 μL/well in OptiMEM™), for one hour. Coating solution was then removed by flicking and plates were washed with OptiMEM™ and blocked with 25 μL/well of assay buffer (1% Ovalbumin (Sigma #A5503-10G) in OptiMEM™ containing 1×Pen-Strep (Gibco #15140-148)). A 5-minute baseline reading was taken on a Corning Epica Plate Reader (Model: Epic BT-157900) before removing the assay buffer and adding cells pre-incubated with inhibitors. The Epic™ plate reader detects cellular mass redistribution (adhesion) on the plate surface as a picometer wavelength shift over time. For inhibitor titration preparation: fivefold serial dilutions of small molecule inhibitor MK-0429 or antibody inhibitor Ab-31 were prepared in assay buffer at 4× the final concentration in a 384-well polypropylene plate in a volume of 15 μL per well, starting at a concentration of 800 nM. […]

[4] = system: experimental diabetic nephropathy model; conditions: cited from earlier work
[5] = system: IPF patient lung fibroblasts; assay: αSMA imaging, TGFβ-induced αSMA expression; assay type: cell-based, human; parameters: inhibiting αSMA induction: dose or concentration left out as unconfirmed
Procedure: αSMA imaging. Primary cells (passage 3-5) were grown on Cell carrier Ultra, collagen Type 1 coated 96-well plates (Perkin Elmer, #6055700) at a density of 25,000 cells/well. Once the cells adhere, they were starved in serum free media for 24 hours followed by addition of treatments, i.e., 5 ng/mL TGFβ (Biolegend #580702)±inhibitors. Cells were pre-treated with inhibitors for 30 minutes prior to the addition of TGFβ stimulation. 48 hours post treatment, the cells were fixed in 4% methanol free paraformaldehyde (ThermoFisher Scientific #28908) for 20 minutes at room temperature and incubated with anti-alpha smooth muscle Actin antibody (Abcam #ab7817) at 1:4000 overnight at 4° C. Following primary antibody incubation, cells were incubated with Goat anti-mouse secondary antibody (ThermoFisher Scientific #A32723) at 1:500 and Hoechst (ThermoFisher Scientific #62249) at 1:1000 for one hour at RT. The fixed and stained cells were images for immunofluorescence on Perkin Elmer's Opera Phenix high content Imager.

[6] = biological target: T4, hαvβ8 (Homo sapiens, UniProt P06756+P26012); assay: Human AlphaLISA integrin-ligand blocking assay (LAP); assay type: biochemical
T4 construct: The full extracellular domains for all α and β integrin subunits; (GGGS)3 linker (C); acidic coiled-coil with cysteine (C); GG-Avitag (C); hexa-histidine tag (C); basic coiled-coil with cysteine (C); made in house; host or cells: Expi293 cells
Procedure: as §1, §2

[7] = biological target: T5, hαvβ6 (Homo sapiens, UniProt P06756+P18564); assay: as above; assay type: biochemical
T5 construct: The full extracellular domains for all α and β integrin subunits; (GGGS)3 linker (C); acidic coiled-coil with cysteine (C); GG-Avitag (C); hexa-histidine tag (C); basic coiled-coil with cysteine (C); made in house; host or cells: Expi293 cells
Procedure: as §1, §2

[8] = biological target: T6, mouse αvβ5 (Mus musculus, UniProt O70309+P43406); assay: Cell adhesion assay, CHOK1-mαvβ5 cells on vitronectin; assay type: cell-based; conditions: FIG. 11
T6 construct: expressed in transfected cells
Procedure: as §3

[9] = biological target: T7, mαvβ1 (Mus musculus, UniProt P09055+P43406); assay: Mouse AlphaLISA integrin-ligand blocking assay (fibronectin); assay type: biochemical; conditions: Table 12; read-out: IC50 Mouse integrin AlphaLISA assays mαvβ1
T7 construct: The full extracellular domains for all α and β integrin subunits; (GGGS)3 linker (C); acidic coiled-coil with cysteine (C); GG-Avitag (C); hexa-histidine tag (C); basic coiled-coil with cysteine (C); made in house; host or cells: Expi293 cells
Procedure: as §1, §2

[10] = osteoporosis patients, 52 weeks; cited from earlier work

T4 sequence (P06756 31-992 limits assumed): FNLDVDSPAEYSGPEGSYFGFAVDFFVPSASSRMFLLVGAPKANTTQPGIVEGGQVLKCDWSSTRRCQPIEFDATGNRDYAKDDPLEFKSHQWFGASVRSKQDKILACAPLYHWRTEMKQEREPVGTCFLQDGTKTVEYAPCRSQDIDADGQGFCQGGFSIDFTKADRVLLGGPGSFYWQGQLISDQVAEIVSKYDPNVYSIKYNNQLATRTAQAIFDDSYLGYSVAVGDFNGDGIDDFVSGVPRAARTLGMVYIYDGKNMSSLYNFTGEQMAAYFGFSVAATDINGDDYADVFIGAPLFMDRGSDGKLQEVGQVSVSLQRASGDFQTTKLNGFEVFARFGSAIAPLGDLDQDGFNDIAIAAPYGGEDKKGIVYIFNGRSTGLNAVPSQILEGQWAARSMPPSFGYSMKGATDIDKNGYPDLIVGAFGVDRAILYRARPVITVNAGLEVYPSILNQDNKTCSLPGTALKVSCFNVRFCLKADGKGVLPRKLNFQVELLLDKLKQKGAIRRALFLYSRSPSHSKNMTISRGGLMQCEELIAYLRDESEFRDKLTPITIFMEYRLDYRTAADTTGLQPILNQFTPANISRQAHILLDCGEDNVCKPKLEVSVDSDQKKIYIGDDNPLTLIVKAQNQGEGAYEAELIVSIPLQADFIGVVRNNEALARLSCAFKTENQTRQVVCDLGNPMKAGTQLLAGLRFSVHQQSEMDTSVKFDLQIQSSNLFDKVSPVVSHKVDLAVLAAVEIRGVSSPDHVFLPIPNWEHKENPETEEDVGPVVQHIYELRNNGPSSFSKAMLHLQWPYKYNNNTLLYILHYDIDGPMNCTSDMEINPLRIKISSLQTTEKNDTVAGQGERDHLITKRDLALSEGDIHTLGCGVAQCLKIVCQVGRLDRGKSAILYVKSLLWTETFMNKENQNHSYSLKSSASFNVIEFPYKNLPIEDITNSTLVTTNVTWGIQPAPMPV
T4 sequence (P26012 43-684 limits assumed): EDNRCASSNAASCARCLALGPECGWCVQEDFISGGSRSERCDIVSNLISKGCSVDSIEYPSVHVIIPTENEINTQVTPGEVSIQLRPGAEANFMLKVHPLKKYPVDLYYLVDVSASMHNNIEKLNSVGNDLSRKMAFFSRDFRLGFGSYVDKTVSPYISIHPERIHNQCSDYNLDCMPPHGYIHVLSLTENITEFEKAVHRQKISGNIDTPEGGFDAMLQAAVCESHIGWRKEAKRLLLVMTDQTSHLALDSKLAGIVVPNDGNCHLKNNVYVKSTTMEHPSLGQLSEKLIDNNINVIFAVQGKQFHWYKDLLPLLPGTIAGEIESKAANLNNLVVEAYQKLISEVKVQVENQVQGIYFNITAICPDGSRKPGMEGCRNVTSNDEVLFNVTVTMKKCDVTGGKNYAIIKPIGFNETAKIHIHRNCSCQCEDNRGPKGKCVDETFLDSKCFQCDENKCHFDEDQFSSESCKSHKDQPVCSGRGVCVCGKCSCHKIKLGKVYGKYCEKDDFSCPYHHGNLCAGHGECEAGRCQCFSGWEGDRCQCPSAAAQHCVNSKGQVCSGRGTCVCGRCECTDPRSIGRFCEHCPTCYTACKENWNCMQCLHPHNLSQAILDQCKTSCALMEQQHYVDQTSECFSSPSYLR
T5 sequence (P06756 31-992 limits assumed): as the sequence (P06756 31-992 limits assumed) above
T5 sequence (P18564 22-709 limits assumed): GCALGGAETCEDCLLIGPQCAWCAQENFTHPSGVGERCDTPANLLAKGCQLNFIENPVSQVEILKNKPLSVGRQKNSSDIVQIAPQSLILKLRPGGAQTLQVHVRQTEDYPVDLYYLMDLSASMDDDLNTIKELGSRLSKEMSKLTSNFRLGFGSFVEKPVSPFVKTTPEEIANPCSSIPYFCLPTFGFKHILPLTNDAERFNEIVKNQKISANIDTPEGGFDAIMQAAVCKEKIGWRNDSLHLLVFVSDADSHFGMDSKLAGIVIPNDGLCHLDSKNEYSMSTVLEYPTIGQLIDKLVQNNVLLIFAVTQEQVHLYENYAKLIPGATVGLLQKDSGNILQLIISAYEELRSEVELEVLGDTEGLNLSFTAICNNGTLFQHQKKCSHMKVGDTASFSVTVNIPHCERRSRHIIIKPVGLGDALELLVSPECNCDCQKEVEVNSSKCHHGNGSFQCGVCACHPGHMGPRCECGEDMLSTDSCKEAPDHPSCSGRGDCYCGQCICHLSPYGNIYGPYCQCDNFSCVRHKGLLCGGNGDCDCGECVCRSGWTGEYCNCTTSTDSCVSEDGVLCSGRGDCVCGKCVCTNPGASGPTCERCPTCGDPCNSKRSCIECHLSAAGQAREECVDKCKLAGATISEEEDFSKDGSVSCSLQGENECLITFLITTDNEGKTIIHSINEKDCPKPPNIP
T3 sequence (P43406 31-1044): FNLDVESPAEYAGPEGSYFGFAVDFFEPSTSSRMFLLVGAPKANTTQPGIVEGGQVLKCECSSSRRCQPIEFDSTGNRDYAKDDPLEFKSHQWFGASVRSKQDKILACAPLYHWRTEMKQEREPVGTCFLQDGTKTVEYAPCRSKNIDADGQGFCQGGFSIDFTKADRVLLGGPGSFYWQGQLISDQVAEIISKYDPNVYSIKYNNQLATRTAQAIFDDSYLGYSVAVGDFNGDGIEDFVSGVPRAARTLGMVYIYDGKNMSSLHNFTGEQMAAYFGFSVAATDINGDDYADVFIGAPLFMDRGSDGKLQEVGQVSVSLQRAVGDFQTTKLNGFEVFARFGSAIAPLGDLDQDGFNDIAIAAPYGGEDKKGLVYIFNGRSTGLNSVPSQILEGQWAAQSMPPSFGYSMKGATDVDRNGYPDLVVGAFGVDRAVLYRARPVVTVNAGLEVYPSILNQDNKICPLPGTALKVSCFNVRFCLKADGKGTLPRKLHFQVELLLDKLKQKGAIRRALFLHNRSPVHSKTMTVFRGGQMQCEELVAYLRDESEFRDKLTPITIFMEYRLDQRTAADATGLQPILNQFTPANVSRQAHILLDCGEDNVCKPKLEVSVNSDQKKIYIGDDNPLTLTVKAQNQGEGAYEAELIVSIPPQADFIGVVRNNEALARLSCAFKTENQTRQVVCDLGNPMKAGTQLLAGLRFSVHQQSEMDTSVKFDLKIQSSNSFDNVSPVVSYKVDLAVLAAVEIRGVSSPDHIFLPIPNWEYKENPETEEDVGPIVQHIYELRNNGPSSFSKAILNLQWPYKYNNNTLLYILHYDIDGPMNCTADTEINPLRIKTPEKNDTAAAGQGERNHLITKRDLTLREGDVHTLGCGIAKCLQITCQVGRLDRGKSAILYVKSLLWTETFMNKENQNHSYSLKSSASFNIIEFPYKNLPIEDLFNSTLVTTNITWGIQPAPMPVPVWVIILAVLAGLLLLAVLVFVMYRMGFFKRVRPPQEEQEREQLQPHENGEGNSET
T3 sequence (O54890 26-787): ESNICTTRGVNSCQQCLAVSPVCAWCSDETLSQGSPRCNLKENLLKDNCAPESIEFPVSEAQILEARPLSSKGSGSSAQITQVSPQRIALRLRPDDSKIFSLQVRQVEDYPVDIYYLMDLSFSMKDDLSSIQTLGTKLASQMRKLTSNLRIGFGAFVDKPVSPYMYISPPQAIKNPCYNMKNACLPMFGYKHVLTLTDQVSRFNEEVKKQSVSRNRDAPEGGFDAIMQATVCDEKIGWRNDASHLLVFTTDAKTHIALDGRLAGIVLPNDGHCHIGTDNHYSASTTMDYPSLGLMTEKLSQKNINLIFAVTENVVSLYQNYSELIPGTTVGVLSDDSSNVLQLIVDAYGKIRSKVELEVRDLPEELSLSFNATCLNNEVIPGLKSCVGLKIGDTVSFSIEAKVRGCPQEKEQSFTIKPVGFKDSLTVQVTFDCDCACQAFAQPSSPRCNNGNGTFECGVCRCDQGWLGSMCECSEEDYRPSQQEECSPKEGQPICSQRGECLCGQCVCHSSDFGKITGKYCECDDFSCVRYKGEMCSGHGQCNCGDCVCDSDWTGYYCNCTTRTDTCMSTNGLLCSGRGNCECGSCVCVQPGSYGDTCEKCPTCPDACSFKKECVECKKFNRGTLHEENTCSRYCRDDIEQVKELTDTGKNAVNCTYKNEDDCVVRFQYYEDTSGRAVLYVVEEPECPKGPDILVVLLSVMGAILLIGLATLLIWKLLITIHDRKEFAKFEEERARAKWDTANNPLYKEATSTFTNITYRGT
T6 sequence (P43406 31-1044): as the sequence (P43406 31-1044) above
T6 sequence (O70309 24-798): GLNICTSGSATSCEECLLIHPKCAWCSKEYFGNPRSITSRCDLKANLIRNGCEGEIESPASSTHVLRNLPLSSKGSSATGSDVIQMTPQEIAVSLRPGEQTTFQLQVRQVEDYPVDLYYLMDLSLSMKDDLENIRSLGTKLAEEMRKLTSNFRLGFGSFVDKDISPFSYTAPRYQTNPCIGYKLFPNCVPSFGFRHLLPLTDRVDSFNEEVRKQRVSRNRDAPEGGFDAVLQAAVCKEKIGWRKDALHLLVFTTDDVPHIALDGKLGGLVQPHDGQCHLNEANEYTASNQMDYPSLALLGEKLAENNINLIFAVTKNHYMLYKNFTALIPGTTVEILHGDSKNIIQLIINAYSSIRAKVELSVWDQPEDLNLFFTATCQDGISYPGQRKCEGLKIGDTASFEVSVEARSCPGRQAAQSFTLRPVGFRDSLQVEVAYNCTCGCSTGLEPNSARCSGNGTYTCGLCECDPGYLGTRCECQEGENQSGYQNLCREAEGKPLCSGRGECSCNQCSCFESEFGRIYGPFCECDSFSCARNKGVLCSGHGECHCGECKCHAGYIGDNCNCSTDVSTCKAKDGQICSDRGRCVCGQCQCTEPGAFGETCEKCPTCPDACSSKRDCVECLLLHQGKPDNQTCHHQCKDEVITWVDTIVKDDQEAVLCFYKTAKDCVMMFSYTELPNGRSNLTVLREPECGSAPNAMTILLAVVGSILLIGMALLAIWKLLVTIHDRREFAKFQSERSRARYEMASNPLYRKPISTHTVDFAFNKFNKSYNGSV

IC50 [1]: 0.4 nM
IC50 [2]: 5.3 nM
cell adhesion of mouse αvβ3 on a vitronectin matrix [3]: decreased
IC50 ([6]; FIG. 3D, curve-fitted, read-out: IC50 against human αvβ1 (as printed, fifth integrin listed), AlphaLISA): 58.3 nM
IC50 ([6]; Table 11, read-out: IC50 Human integrin AlphaLISA assays hαvβ8): 3.1 nM
IC50 ([7]; FIG. 3D, curve-fitted, read-out: IC50 against human αvβ6, AlphaLISA): 3.8 nM
IC50 ([7]; Table 11, read-out: IC50 Human integrin AlphaLISA assays hαvβ6): 0.5 nM
cell adhesion of mouse αvβ5 on a vitronectin matrix [8]: decreased
IC50 [9]: 1.3 nM
Compound: COc1ccc([C@H](CC(=O)O)N2CCN(CCCc3ccc4c(n3)NCCC4)C2=O)cn1 [MK-0429, (3S)-3-(6-methoxypyridin-3-yl)-3-[2-oxo-3-[3-(5,6,7,8-tetrahydro-1,8-naphthyridin-2-yl)propyl]imidazolidin-1-yl]propanoic acid]
proteinuria [4]: reduces
renal fibrosis [4]: reduces
inhibiting αSMA induction [5]: minimal activity
safety profile [10]: relatively well-tolerated safety profile
